Assay results published in publication PMC8665362, “Identification of small-molecule allosteric modulators that act as enhancers/disrupters of rhodopsin oligomerization” (The Journal of Biological Chemistry, 2021).
Marks after values point to notes of the source that are not given here.

Experiments:
[1] = system: rod photoreceptors of isolated mouse retinas; test: ex vivo ERG of isolated mouse retinas (rod light responses); assay type: cell-based, mouse (C57BL/6J); conditions: 250 μM compound
Excerpt: We determined the impact of compound #7 (representative disrupter of rhodopsin dimerization) and compound #1 (representative enhancer) on the sensitivity and kinetics of rod light responses, using ex vivo electroretinogram (ERG) analysis of isolated mouse retinas (Experimental procedures). This technique allows robust recordings from intact retinas and is well suited for quantitative investigation of mouse phototransduction ([48], [49], [50], [51], [52], [53]).
Ex vivo ERG recordings were conducted with isolated retinas of C57Bl/6J mice, as described ([41], [62], [63]). Mice were dark-adapted overnight and euthanized by CO2 asphyxiation, and whole retinas were dissected under dim red light. Before recordings, retinas were incubated for 5 h in Ames’ medium (Sigma-Aldrich) inside a light-tight box that was supplied with humidified 95% O2/5% CO2. For control retinas, 0.1% DMSO was added to the incubation medium, and for others, the incubation medium contained either 250 μM F2502-0030 (compound #1) or F5897-0190 (compound #7). These compounds were first dissolved in DMSO at 250 mM concentration, and 0.1% of this stock solution was added to the incubation medium (Ames’ medium). Stock solution was stored at −20 °C and used within a week. After incubation, retinas were placed on the ex vivo ERG specimen holder and perfused with Ames’ medium (saturated with 95% O2/5% CO2) at 1.5 ml/min at 35 °C. Ames’ medium was supplemented with 100 μM BaCl2 and 40 μM DL-AP4 (Tocris Bioscience) to isolate the photoreceptor component of the ERG signal. Responses were recorded to 5 ms flashes of light (630 nm) ranging from 276 to 308,534 photons μm^−2, corresponding to 1 to 1100 photons μm^−2 at 500 nm ([64]). Sensitivity of rod photoreceptors was determined in three ways: (1) sF = peak amplitude of dim flash response divided by flash energy (1 photon μm^−2); (2) SF = sF/Rmax, where Rmax is the maximal response amplitude measured at the plateau from a saturated rod response; (3) I1/2: flash energy required to elicit 50% of the Rmax determined by fitting a Naka-Rushton function to flash energy-amplitude data.

[2] = target: T1, bovine rhodopsin (Bos taurus, UniProt P02699); test: rhodopsin Meta II decay assay (Trp265 intrinsic fluorescence); conditions: 100 μM compound
T1 construct: The washed ROS with isotonic and hypotonic buffers was used as described above; from tissue; host or cells: bovine rod outer segments (ROS)
T1 sequence (P02699 whole entry): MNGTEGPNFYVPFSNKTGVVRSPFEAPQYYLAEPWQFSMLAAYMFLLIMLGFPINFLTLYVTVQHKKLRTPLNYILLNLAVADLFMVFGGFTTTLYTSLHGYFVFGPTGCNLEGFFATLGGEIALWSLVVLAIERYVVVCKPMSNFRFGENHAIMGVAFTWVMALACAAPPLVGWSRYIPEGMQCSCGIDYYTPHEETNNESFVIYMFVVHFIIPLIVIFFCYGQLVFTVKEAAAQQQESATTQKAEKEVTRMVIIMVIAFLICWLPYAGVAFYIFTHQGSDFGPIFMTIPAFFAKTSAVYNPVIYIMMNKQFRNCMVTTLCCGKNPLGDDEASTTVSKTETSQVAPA
Experimental: However, oligomerization of isorhodopsin could affect the chromophore release from opsin. The chromophore release can be measured sensitively by the light-induced increase in intrinsic fluorescence of the Trp^265 residue that occurs upon release of the chromophore after illumination ([43]).
The washed ROS with isotonic and hypotonic buffers was used as described above. The solubilized rhodopsin at 1.05 mg/ml in 20 mM 1,3-bis(tris(hydroxymethyl)methylamino) propane, pH 6.9, 100 mM NaCl, and 1 mM LMNG buffer was incubated for 5 min at 20 °C with 0.7 μl of 100 mM stock solutions of the nine identified hit compounds (100 μM final concentration) in DMSO and centrifuged at 1000g for an additional 5 min. Next, photobleaching was carried out with a 150-W fiber light delivered through a 480 to 520 nm band pass filter (Chroma Technology) for 10 s. Samples were subjected to fluorescence measurements acquired through 150 s in triplicate. The results were analyzed with an L55 luminescence spectrophotometer (PerkinElmer) operating at excitation and emission wavelengths of 300 nm and 335 nm, respectively.

[3] = target: rhodopsin (isorhodopsin) dimerization (Homo sapiens, UniProt P08100); test: rhodopsin dimerization BRET assay in HEK293 opsin-Rluc/opsin-Venus cells; assay type: cell-based; design: expressed in transfected cells; host or cells: HEK293 (human embryonic kidney 293) opsin-Rluc / opsin-Venus cell lines; conditions: HEK293 opsin-Rluc/opsin-Venus cells regenerated with 9-cis-retinal; triplicates; read from Fig. 3B,E
rhodopsin (isorhodopsin) dimerization, sequence (P08100 whole entry, the tested form may be a part): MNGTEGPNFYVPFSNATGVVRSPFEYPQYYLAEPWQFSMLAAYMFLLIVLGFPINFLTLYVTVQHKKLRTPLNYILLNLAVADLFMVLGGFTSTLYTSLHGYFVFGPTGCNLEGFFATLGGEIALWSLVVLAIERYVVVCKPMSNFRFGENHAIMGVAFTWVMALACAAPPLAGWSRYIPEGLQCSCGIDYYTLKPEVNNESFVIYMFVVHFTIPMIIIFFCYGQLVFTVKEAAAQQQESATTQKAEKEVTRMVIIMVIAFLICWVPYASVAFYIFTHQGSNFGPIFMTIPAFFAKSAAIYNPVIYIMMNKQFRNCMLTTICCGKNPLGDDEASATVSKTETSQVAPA
Excerpt: To identify small molecules that target rhodopsin dimerization, a cell-based high-throughput screening (HTS) assay was used to screen a diverse library of 50,000 compounds from Life Chemicals. The human osteosarcoma (U2OS) stable cell line was used, which expresses opsin fused with complimentary subunits of β-galactosidase (β-gal), namely, the enzyme acceptor large β-gal subunit (EA) and the enzyme donor, small subunit of β-gal (PK). Upon rhodopsin self-association in vitro, a competent β-gal was formed and chemiluminescent signal was generated in the presence of β-gal substrate (Fig. 1A). For further validation, the β-gal activity assay was used to counter-screen and rule out false positives, affecting the activity of β-gal without affecting rhodopsin (Fig. 1B) ([34]). In an orthogonal assay, rhodopsin dimerization was assessed using a bioluminescence resonance energy transfer (BRET) assay with human embryonic kidney 293 cells expressing opsin fused with Renilla luciferase and opsin fused with Venus (Fig. 1C) ([35], [36]). To form functional visual pigment, opsin-fused proteins were regenerated with 9-cis-retinal to form so-called isorhodopsin ([37]). We chose 9-cis-retinal over photoreceptor-endogenous 11-cis-retinal because of its availability and the prohibitive cost for HTS assays with the native chromophore. Rhodopsin and isorhodopsin have similar biochemical and spectral properties (see ([38])).
Identified hits from the β-gal complementation assay were subjected to the previously developed BRET assay, using human embryonic kidney 293 opsin–Renilla luciferase and opsin-Venus cell lines ([37]). Cultured cells were diluted to 2 × 10^5 cells/ml in the medium containing 10% fetal bovine serum (Thermo Fisher Scientific) and 1% penicillin-streptomycin (10,000 U/ml; Thermo Fisher Scientific), and 20 μl/well of the cell diluent was dispensed into a white ViewPlate-384 (PerkinElmer). Cells were cultured overnight at 37 °C in 5% CO2, and under a dim red light, cells were treated with 9-cis-retinal at 7.5 μM final concentration. The next day, cells were treated with the identified hit compounds from the β-gal complementation assay at 180 μM down to 2.4 nM concentrations, and 1 μM final concentration of TM5 peptide ([…]-NH2; EZBiolab) serving as the control. On the following day, the culture medium was aspirated and replaced with 90 μl/well of PBS containing pivaloyloxymethyl acetoxycoelenterazine h (Dalton Research Molecules) at 600 μM concentration followed by incubation at 20 °C for 40 min ([35]). Dual luminescence readings at 480 and 530 nm were performed using a SpectraMax L plate reader with the BRET1 filter set (Molecular Devices).

O=C(CSc1nnc(NC(=O)Cc2ccc(F)cc2)s1)NO [#1]
effect on kinetics of rod light responses [1]: did not substantially affect the kinetics of responses
Rmax ([1]; 5 h incubation, N = 4 retinas): 320 ± 80 ^a μV
half-saturating I1/2 from best-fitting Michaelis–Menten equation to mean normalized amplitudes ([1]; Fig. 5F): 37 photons μm^−2
SF (fractional sensitivity, sF/rmax) ([1]; N = 4): 5.0 ± 0.3 ^a %/photons∙μm^−2
sF (absolute sensitivity) ([1]; N = 4): 13 ± 5 ^a μV/photons∙μm^−2
I1/2 ([1]; from individual retinas, N = 4): 37 ± 2 ^a photons∙μm^−2
tp ([1]; time-to-peak of dim flash (1 photon μm^−2), N = 4): 163 ± 12 ms
light-induced increase in Trp265 intrinsic fluorescence vs DMSO-treated isorhodopsin [2]: significantly quenched
Meta II decay rate (slope of intrinsic fluorescence over 150 s) relative to DMSO control ([2]; bleached rhodopsin, p < 0.0001): statistically significant signal reduction
EC50 [3]: 2340 nM
